Experimental data published in US9365562B2, “1,3 substituted azetidine PDE10 inhibitors” (Merck Sharp & Dohme Corp., priority 2011, dated 2016).

Biological target: human PDE10A2 (Homo sapiens (Human), UniProt Q9Y233)
Test: PDE10 fluorescence polarization (IMAP FP) inhibition assay
Format: biochemical
Conditions: apparent inhibition constant, FAM-labeled cAMP substrate 50 nM, room temperature
Outline: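 Cytoplasmic lysate of AD293 cells transiently expressing human PDE10A2, enzyme preincubated 60 min at room temperature with compounds (1% DMSO), then 50 nM FAM-cAMP added for 60 min. Buffer 10 mM Tris HCl pH 7.2, 10 mM MgCl2, 1 mM DTT; IMAP binding reagent stop, FP read after ≥1 h.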

Sequence of human PDE10A2 (Q9Y233 267-1055): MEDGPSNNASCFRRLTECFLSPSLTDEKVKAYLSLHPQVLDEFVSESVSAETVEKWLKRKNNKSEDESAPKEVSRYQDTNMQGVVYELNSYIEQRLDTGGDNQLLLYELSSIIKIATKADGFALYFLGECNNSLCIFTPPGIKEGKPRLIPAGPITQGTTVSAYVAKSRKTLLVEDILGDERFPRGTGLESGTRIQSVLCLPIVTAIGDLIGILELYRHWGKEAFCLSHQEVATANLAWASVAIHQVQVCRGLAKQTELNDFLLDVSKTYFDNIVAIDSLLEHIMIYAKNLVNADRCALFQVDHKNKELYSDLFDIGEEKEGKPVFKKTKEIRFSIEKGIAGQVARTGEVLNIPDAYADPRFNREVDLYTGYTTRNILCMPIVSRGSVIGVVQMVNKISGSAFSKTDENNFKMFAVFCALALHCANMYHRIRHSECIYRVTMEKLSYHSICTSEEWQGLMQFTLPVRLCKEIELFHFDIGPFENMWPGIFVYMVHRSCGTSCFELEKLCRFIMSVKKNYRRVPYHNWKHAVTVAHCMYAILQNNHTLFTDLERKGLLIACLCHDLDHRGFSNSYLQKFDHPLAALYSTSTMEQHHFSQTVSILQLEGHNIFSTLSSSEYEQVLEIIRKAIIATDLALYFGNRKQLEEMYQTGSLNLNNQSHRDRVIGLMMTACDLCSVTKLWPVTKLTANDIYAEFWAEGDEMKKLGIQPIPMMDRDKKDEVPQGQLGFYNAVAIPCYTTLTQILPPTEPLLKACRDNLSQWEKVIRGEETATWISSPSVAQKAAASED

Compound	Ki [nM]
Cc1nc(N2CC(c3nc4ccccc4n3C)C2)cc(-n2nc(C)nc2C2CC(=O)N(C)C2)n1 (stereo not shown) [Example 47, 1-methyl-4-(3-methyl-1-(2-methyl-6-(3-(1-methyl-1H-benzo[d]imidazol-2-yl)azetidin-1-yl)pyrimidin-4-yl)-1H-1,2,4-triazol-5-yl)pyrrolidin-2-one]	3.9
COCc1nc(C)nn1-c1cc(N2CC(c3nc4ccccc4n3C)C2)nc(C)n1 [Example 59, 2-(1-{6-[5-(methoxymethyl)-3-methyl-1H-1,2,4-triazol-1-yl]-2-methylpyrimidin-4-yl}azetidin-3-yl)-1-methyl-1H-benzimidazole]	1.5
Cc1cnn(-c2cc(N3CC(c4nc5ccccc5n4C)C3)nc(C(F)(F)F)n2)c1 [Example 5, 1-methyl-2-(1-(6-(4-methyl-1H-pyrazol-1-yl)-2-(trifluoromethyl)pyrimidin-4-yl)azetidin-3-yl)-1H-benzo[d]imidazole]	1.2
Cc1cnn(-c2cc(N3CC(c4nc5ccccc5n4C)C3)nc(C3CC3)n2)c1 [Example 6, 2-(1-(2-cyclopropyl-6-(4-methyl-1H-pyrazol-1-yl)pyrimidin-4-yl)azetidin-3-yl)-1-methyl-1H-benzo[d]imidazole]	0.53
1-(1-{2-methoxy-6-3-(1-methyl-1H-benzimidazol-2-yl)azetidin-1-yl]pyrimidin-4-yl}-1H-pyrazol-4-yl)ethanol [Example 20]	37
COc1nc(N2CC(c3nc4ccccc4n3C)C2)cc(-n2nc(C)nc2C)n1 [Example 62, 2-{1-[6-(3,5-dimethyl-1H-1,2,4-triazol-1-yl)-2-methoxypyrimidin-4-yl]azetidin-3-yl}-1-methyl-1H-benzimidazole]	0.76
COCc1nc(C)nn1-c1cc(N2CC(c3nc4ccccc4n3C)C2)nc(C(F)(F)F)n1 [Example 66, 2-(1-(6-(5-(methoxymethyl)-3-methyl-1H-1,2,4-triazol-1-yl)-2-(trifluoromethyl)pyrimidin-4-yl)azetidin-3-yl)-1-methyl-1H-benzo[d]imidazole]	0.94
Cc1nc(C)n(-c2cc(N3CC(c4nc5ccccc5n4C)C3)nc(C3CC3)n2)n1 [Example 61, 2-{1-[2-cyclopropyl-6-(3,5-dimethyl-1H-1,2,4-triazol-1-yl)pyrimidin-4-yl]azetidin-3-yl}-1-methyl-1H-benzimidazole]	0.46
COc1nc(N2CC(c3nc4ccccc4n3C)C2)cc(-n2nc(C)nc2C2CC2)n1 [Example 63, 2-(1-(6-(5-cyclopropyl-3-methyl-1H-1,2,4-triazol-1-yl)-2-methoxypyrimidin-4-yl)azetidin-3-yl)-1-methyl-1H-benzo[d]imidazole]	1.8
Cc1cc(C)n(-c2cc(N3CC(c4nc5ccccc5n4C)C3)nc(C)n2)n1 [Example 7, 2-(1-(6-(3,5-dimethyl-1H-pyrazol-1-yl)-2-methylpyrimidin-4-yl)azetidin-3-yl)-1-methyl-1H-benzo[d]imidazole]	8.6
Cc1nc(-c2cccc(C(F)(F)F)n2)cc(N2CC(c3nc4ccccc4n3C)C2)n1 [Example 87, 1-methyl-2-(1-(2-methyl-6-(6-(trifluoromethyl)pyridin-2-yl)pyrimidin-4-yl)azetidin-3-yl)-1H-benzo[d]imidazole]	1.3
Cc1nc(C)n(-c2cc(N3CC(c4nc5ccccc5n4C)C3)nc(CC#N)n2)n1 [Example 25, 2-(4-(3,5-dimethyl-1H-1,2,4-triazol-1-yl)-6-(3-(1-methyl-1H-benzo[d]imidazol-2-yl)azetidin-1-yl)pyrimidin-2-yl)acetonitrile]	1.3
Cc1nc(N2CC(c3nc4ccccc4n3C)C2)cc(-n2nc(C)nc2-c2ccccc2Cl)n1 [Example 50, 2-(1-(6-(5-(2-chlorophenyl)-3-methyl-1H-1,2,4-triazol-1-yl)-2-methylpyrimidin-4-yl)azetidin-3-yl)-1-methyl-1H-benzo[d]imidazole]	0.35
Cc1nc(N2CC(c3nc4ccccc4n3C)C2)cc(-n2ccc(C(F)(F)F)n2)n1 [Example 11, 1-methyl-2-(1-(2-methyl-6-(3-(trifluoromethyl)-1H-pyrazol-1-yl)pyrimidin-4-yl)azetidin-3-yl)-1H-benzo[d]imidazole]	0.76
Cc1nc(C)n(-c2cc(N3CC(c4nc5ccccc5n4C)C3)nc(N3CCCC3)n2)n1 [Example 78, 2-{1-[6-(3,5-dimethyl-1H-1,2,4-triazol-1-yl)-2-(pyrrolidin-1-yl)pyrimidin-4-yl]azetidin-3-yl}-1-methyl-1H-benzimidazole]	0.29
Cc1nc(N2CC(c3nc4ccccc4n3C)C2)cc(-n2nc(C)nc2COc2ccccc2)n1 [Example 46, 1-methyl-2-(1-(2-methyl-6-(3-methyl-5-(phenoxymethyl)-1H-1,2,4-triazol-1-yl)pyrimidin-4-yl)azetidin-3-yl)-1H-benzo[d]imidazole]	1.2
Cc1nc(N2CC(c3nc4ccccc4n3C)C2)cc(-n2nc(C)nc2-c2c(F)cccc2F)n1 [Example 56, 2-(1-(6-(5-(2,6-difluorophenyl)-3-methyl-1H-1,2,4-triazol-1-yl)-2-methylpyrimidin-4-yl)azetidin-3-yl)-1-methyl-1H-benzo[d]imidazole]	0.24
Cc1nc(C)n(-c2cc(N3CC(c4nc5ccccc5n4C)C3)nc(OCc3ccno3)n2)n1 [Example 71, 5-(((4-(3,5-dimethyl-1H-1,2,4-triazol-1-yl)-6-(3-(1-methyl-1H-benzo[d]imidazol-2-yl)azetidin-1-yl)pyrimidin-2-yl)oxy)methyl)isoxazole]	0.4
Cc1nc(-c2cccnc2)cc(N2CC(c3nc4ccccc4n3C)C2)n1 [Example 81, 1-methyl-2-(1-(2-methyl-6-(pyridin-3-yl)pyrimidin-4-yl)azetidin-3-yl)-1H-benzo[d]imidazole]	76
Cc1ccc(C2CN(c3cc(-n4nc(C)nc4C)nc(C)n3)C2)nc1 [Example 126, 4-(3,5-Dimethyl-1H-1,2,4-triazol-1-yl)-2-methyl-6-[3-(5-methylpyridin-2-yl)azetidin-1-yl]pyrimidine]	407
Cc1nc(N2CC(c3nc4cccc(F)c4[nH]3)C2)cc(-n2nc(C)nc2C)n1 [Example 108, 2-(1-(6-(3,5-dimethyl-1H-1,2,4-triazol-1-yl)-2-methylpyrimidin-4-yl)azetidin-3-yl)-7-fluoro-1H-benzo[d]imidazole]	19
CCc1nc(CC)n(-c2cc(N3CC(c4nc5ccccc5n4C)C3)nc(C)n2)n1 [Example 22, 2-(1-(6-(3,5-diethyl-1H-1,2,4-triazol-1-yl)-2-methylpyrimidin-4-yl)azetidin-3-yl)-1-methyl-1H-benzo[d]imidazole]	3.3
CCOCCn1c(C2CN(c3cc(-n4nc(C)nc4C)nc(C)n3)C2)nc2ccccc21 [Example 120, 2-(1-(6-(3,5-dimethyl-1H-1,2,4-triazol-1-yl)-2-methylpyrimidin-4-yl)azetidin-3-yl)-1-(2-ethoxyethyl)-1H-benzo[d]imidazole]	8.5
CC(=O)c1ccc(-c2cc(N3CC(c4nc5ccccc5n4C)C3)nc(C)n2)nc1 [Example 102, 1-(6-(2-methyl-6-(3-(1-methyl-1H-benzo[d]imidazol-2-yl)azetidin-1-yl)pyrimidin-4-yl)pyridin-3-yl)ethanone]	9
Cc1ccc(-c2cc(N3CC(c4nc5ccccc5n4C)C3)nc(C)n2)nc1 [Example 94, 1-methyl-2-(1-(2-methyl-6-(5-methylpyridin-2-yl)pyrimidin-4-yl)azetidin-3-yl)-1H-benzo[d]imidazole]	1
